ChEMBL document CHEMBL1201862, “PubChem BioAssay data set” (2004)
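These data come from cells grown in 96-well plates and exposed to compound for 48 hours at five concentrations. GI50 = concentration required for 50% inhibition of growth.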 Active and inactive are the calls of the source. No stated cut-off is given here; in the data, active = GI50 up to about 1.1 µM and inactive = higher.

Key:
Assay in all cases: NCI tumour cell line growth inhibition, 48 h
HOP-92 = system: HOP-92
CAKI-1 = system: CAKI-1
HCC 2998 = system: HCC 2998
MDA-MB-435 = system: MDA-MB-435
OVCAR-5 = system: OVCAR-5
SF-295 = system: SF-295
SK-MEL-28 = system: SK-MEL-28
Hs-578T = system: Hs-578T
786-0 = system: 786-0
UACC-62 = system: UACC-62
EKVX = system: EKVX
DU-145 = system: DU-145
KM12 = system: KM12
SNB-19 = system: SNB-19
HCT-15 = system: HCT-15
TK-10 = system: TK-10
SW-620 = system: SW-620
A549 = system: A549
LOX IMVI = system: LOX IMVI
Malme-3M = system: Malme-3M
IGROV-1 = system: IGROV-1
NCI-H522 = system: NCI-H522
SK-MEL-2 = system: SK-MEL-2
SR = system: SR
T47D = system: T47D
CCRF-CEM = system: CCRF-CEM
BT-549 = system: BT-549
UACC-257 = system: UACC-257
HL-60 = system: HL-60
ACHN = system: ACHN
SK-MEL-5 = system: SK-MEL-5
A498 = system: A498
NCI/ADR-RES = system: NCI/ADR-RES
MCF7 = system: MCF7
OVCAR-4 = system: OVCAR-4
HOP-62 = system: HOP-62
HCT-116 = system: HCT-116
NCI-H23 = system: NCI-H23
PC-3 = system: PC-3
OVCAR-3 = system: OVCAR-3
SNB-75 = system: SNB-75
SF-539 = system: SF-539
SK-OV-3 = system: SK-OV-3
U-251 = system: U-251
COLO 205 = system: COLO 205
UO-31 = system: UO-31
MOLT-4 = system: MOLT-4
SN12C = system: SN12C
HT-29 = system: HT-29
OVCAR-8 = system: OVCAR-8
NCI-H460 = system: NCI-H460
MDA-MB-231 = system: MDA-MB-231
RXF 393 = system: RXF 393
K562 = system: K562
M14 = system: M14
NCI-H226 = system: NCI-H226
RPMI-8226 = system: RPMI-8226
MDA-N = system: MDA-N
SF-268 = system: SF-268

Cc1cc2cc3c(cc2c(-c2ccc([N+](=O)[O-])cc2)n1)OCO3
GI50 (HOP-92): 3.77 µM (inactive)
GI50 (CAKI-1): 38.4 µM (inactive)
GI50 (HCC 2998): 74 µM (inactive)
GI50 (MDA-MB-435): 65.9 µM (inactive)
GI50 (OVCAR-5): > 100 µM (inactive)
GI50 (SF-295): 50 µM (inactive)
GI50 (SK-MEL-28): 41.1 µM (inactive)
GI50 (Hs-578T): 23.3 µM (inactive)
GI50 (786-0): 23.6 µM (inactive)
GI50 (UACC-62): 20.6 µM (inactive)
GI50 (EKVX): 62.2 µM (inactive)
GI50 (DU-145): 62.8 µM (inactive)
GI50 (KM12): 25.1 µM (inactive)
GI50 (SNB-19): 21.2 µM (inactive)
GI50 (HCT-15): 26.5 µM
GI50 (TK-10): 43.9 µM (inactive)
GI50 (SW-620): 29.4 µM (inactive)
GI50 (A549): 25.8 µM (inactive)
GI50 (LOX IMVI): 41.2 µM (inactive)
GI50 (Malme-3M): 61.1 µM (inactive)
GI50 (IGROV-1): 15.5 µM (inactive)
GI50 (NCI-H522): 14.4 µM (inactive)
GI50 (SK-MEL-2): 39.1 µM (inactive)
GI50 (SR): 27.9 µM (inactive)
GI50 (T47D): 34.9 µM (inactive)
GI50 (CCRF-CEM): 31.6 µM (inactive)
GI50 (BT-549): 17.2 µM (inactive)
GI50 (UACC-257): 80.2 µM (inactive)
GI50 (HL-60): 57.5 µM (inactive)
GI50 (ACHN): 29.9 µM (inactive)
GI50 (SK-MEL-5): 17.4 µM (inactive)
GI50 (A498): > 100 µM (inactive)
GI50 (NCI/ADR-RES): 44.6 µM (inactive)
GI50 (MCF7): 37.8 µM (inactive)
GI50 (OVCAR-4): 17.9 µM (inactive)
GI50 (HOP-62): 19 µM (inactive)
GI50 (HCT-116): 36.8 µM (inactive)
GI50 (NCI-H23): 45 µM (inactive)
GI50 (PC-3): 44.7 µM (inactive)
GI50 (OVCAR-3): 55.2 µM (inactive)
GI50 (SNB-75): 19.7 µM (inactive)
GI50 (SF-539): 22.6 µM (inactive)
GI50 (SK-OV-3): 25.6 µM (inactive)
GI50 (U-251): 23.7 µM (inactive)
GI50 (COLO 205): 37.7 µM (inactive)
GI50 (UO-31): 13.5 µM (inactive)
GI50 (MOLT-4): 22.5 µM (inactive)
GI50 (SN12C): 28.7 µM (inactive)
GI50 (HT-29): 56.8 µM (inactive)
GI50 (OVCAR-8): 28.5 µM (inactive)
GI50 (NCI-H460): 29.7 µM (inactive)
GI50 (MDA-MB-231): 18.6 µM (inactive)
GI50 (RXF 393): 32.7 µM (inactive)
GI50 (K562): 60.8 µM (inactive)
GI50 (M14): 88.7 µM (inactive)
GI50 (NCI-H226): 24.8 µM (inactive)
GI50 (RPMI-8226): 35.8 µM (inactive)
GI50 (MDA-N): 54.2 µM (inactive)
GI50 (SF-268): 34.6 µM (inactive)
